Reference: patent publication US20240207264A1, “PHARMACEUTICAL COMPOSITIONS COMPRISING INHIBITORS OF THE ANDROGEN RECEPTOR AND USES THEREOF” (ESSA PHARMA INC., priority 2021, published 2024)
Where two headings read alike, the source gives them in different places.

Key:
[1] = Phase I clinical study, PK; type: in vivo, human; conditions: patients; for Cmax / Tmax / AUC(0-t) / half-life: po, 200 mg/day; for AUC(0-t): read-out: AUC0-24; for half-life: read-out: t½ (converted)
Experimental: Phase I clinical research study of Compound A is studied as a treatment for patients with prostate cancer. All patients in the study receives Compound A at a once daily oral dose of 200 mg, 400 mg, 600 mg, 800 mg, or 1000 mg. Compound A in this study is provided as an SDD composition with HPMCAS-H. One cycle of treatment is 28 days of dosing.
PK parameters were measured from 4 subjects who were administered at 200 mg/day dose (Table 33). One patient discontinued before day 28 due to disease progression. 2 subjects received both abiraterone and enzalutamide prior treatments. 3 subjects received prior chemotherapy with taxanes.

LNCaP = LNCaP prostate cancer xenograft model; type: in vivo; conditions: LNCaP (AR FL), castrated male mice, 60 mg/kg, Solution, qd24
Experimental: Compound A's activity was measured in a variety of castrate-sensitive and castrate-resistant prostate cancer (CRPC) xenograft models (Table 32).

[2] = male, human, in vivo, 200 mg/day oral SDD with HPMCAS-H, Day 1, N 4
[3] = male, human, in vivo, 200 mg/day oral SDD with HPMCAS-H, Day 28, N 3

With `CC(C)(c1ccc(OCc2ccnc(NS(C)(=O)=O)n2)cc1)c1cc(Cl)c(OCCCl)c(C#N)c1` [Compound A, N-(4-((4-(2-(3-chloro-4-(2-chloroethoxy)-5-cyanophenyl)propan-2-yl)phenoxy)methyl)pyrimidin-2-yl)methanesulfonamide] as the compound, how does the Cmax [1, 2] read?
Its Cmax is 3300 ng/mL.

And the Tmax [1, 2]?
The Tmax was 6.5 h.

And the AUC(0-t) [1, 2]?
Its AUC(0-t) is 53.9 µg·h/mL.

And the half-life [1, 2]?
Its half-life is 22 h.

What about the Cmax [1, 3] of the same compound?
The Cmax was 8020 ng/mL.

And the Tmax [1, 3]?
Its Tmax is 6.7 h.

And the AUC(0-t) [1, 3]?
The AUC(0-t) was 147 µg·h/mL.

And the half-life [1, 3]?
The half-life was 24.8 h.

What about the concentration at 28 day ([1]; male, human, in vivo, 200 mg/day oral SDD with HPMCAS-H, Day 28, N 3, read-out: Clast) of the same compound?
Its concentration at 28 day is 4590 ng/mL.

And the Clast ([1]; 200 mg/day oral SDD with HPMCAS-H, Day 1, N 4)?
Its Clast is 1,808 ng/mL.

And the “time to steady state” value ([1]; repeat QD dosing 200 mg/day)?
The value was “after day 8”.

What about the “TGI (Tumor Growth Inhibition)” value (LNCaP) of the same compound?
Its value is 93%.
